Assay [1] deals with T1, human MDM4 protein (amino acids 2-185) (Homo sapiens, UniProt O15151).
T1 construct: human MDM4 protein (amino acids 2-185); made in house
T1 sequence (O15151 2-185): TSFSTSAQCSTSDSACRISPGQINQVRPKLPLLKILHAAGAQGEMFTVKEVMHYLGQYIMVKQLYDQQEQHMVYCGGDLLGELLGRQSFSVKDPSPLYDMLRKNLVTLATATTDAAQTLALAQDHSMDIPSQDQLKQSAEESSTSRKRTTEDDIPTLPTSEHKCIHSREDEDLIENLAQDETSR
Kind of assay: p53-MDM4 TR-FRET assay (p53-MDM4 Assay 1). The settings on record: 2.5 nM MDM4-biotinylated, 10 nM Cy5-p53 peptide; read-out: IC50 (μM) of p53-Hdm4 inhibition (TR-FRET) Assay 1. In kind it is binding. The procedure, abridged:
(§1)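 C-terminally biotinylated MDM2 (aa 2-188, 1.25 nM) or MDM4 (aa 2-185, 2.5 nM) with Eu-streptavidin (0.625 nM), 15 min preincubation, then 10 nM Cy5-p53 peptide (aa18-26), 15 min room temperature; TR-FRET 665/620 nm ratio, IC50 by curve fit. Modified MDM2 Assay 2 uses 0.1 nM MDM2 and 0.1 nM Eu-streptavidin.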

The target in assay [2] is T2, human MDM2 protein (amino acids 2-188) (Homo sapiens, UniProt Q00987).
T2 construct: human MDM2 protein (amino acids 2-188); made in house
Description: p53-MDM2 TR-FRET assay (p53-MDM2 Assay 1). The assay is classed as binding. Conditions: 1.25 nM MDM2-biotinylated, 10 nM Cy5-p53 peptide; read-out: IC50 (μM) of p53-Hdm2 inhibition (TR-FRET) Assay 1. The procedure, abridged:
as §1
A general note: In TR-FRET formats the signal depends on donor and acceptor labels being close together.

Molecules are shown by their SMILES.

T2 sequence (Q00987 2-188): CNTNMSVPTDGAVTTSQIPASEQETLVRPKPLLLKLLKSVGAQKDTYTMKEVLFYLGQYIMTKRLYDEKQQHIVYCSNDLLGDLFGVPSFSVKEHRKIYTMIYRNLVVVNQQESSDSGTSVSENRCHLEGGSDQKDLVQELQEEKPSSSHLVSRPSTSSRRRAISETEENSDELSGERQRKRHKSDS

For the compound `COc1cc2c(cc1OC(C)C)[C@H](c1ccc(Cl)cc1)N(c1ccc(C(C)(O)C3CCOCC3)c(F)c1)C(=O)C2` (mixture of isomers) [Example 35, (S)-1-(4-Chloro-phenyl)-2-{3-fluoro-4-[1-hydroxy-1-(tetrahydro-pyran-4-yl)-ethyl]-phenyl}-7-isopropoxy-6-methoxy-1,4-dihydro-2H-isoquinolin-3-one], the IC50 (commonly the concentration that inhibits the measured activity by half) came to 1.48 µM in assay [1] and 0.0025 µM in assay [2].

For the compound `COc1cc2c(cc1OC(C)C)[C@H](c1ccc(Cl)cc1)N(c1ccc([C@@](C)(O)C3CCOCC3)cc1)C(=O)C2` (single isomer, unassigned) [Example 32], the figures for the IC50 in assay [1] and in assay [2] were 2.19 µM and 0.0023 µM, respectively.

`CNC(=O)N1CC(C(C)(O)c2ccc(N3C(=O)Cc4cc(OC)c(OC(C)C)cc4[C@@H]3c3ccc(Cl)cc3)cc2)C1` (stereo partly drawn) [Example 67, 3-(1-{4-[(S)-1-(4-Chloro-phenyl)-7-isopropoxy-6-methoxy-3-oxo-3,4-dihydro-1H-isoquinolin-2-yl]-phenyl}-1-hydroxy-ethyl)-azetidine-1-carboxylic acid methylamide]: the IC50 in assay [1] was determined as 16.7 µM; in assay [2] it was 0.0152 µM.

`COc1cccc(C(C)(O)c2ccc(N3C(=O)Cc4cc(OC)c(OC(C)C)cc4[C@@H]3c3ccc(Cl)cc3)cc2)c1` (stereo partly drawn) [Example 1, (S)-1-(4-Chloro-phenyl)-2-{4-[1-hydroxy-1-(3-methoxy-phenyl)-ethyl]-phenyl}-7-isopropoxy-6-methoxy-1,4-dihydro-2H-isoquinolin-3-one]: the IC50 is 70.8 µM in assay [1] and 0.0432 µM in assay [2].

For `COc1cc2c(cc1OC(C)C)[C@H](c1ccc(Cl)cc1)N(c1ccc(C(C)(O)C3CCN(C(=O)NC(C)C)CC3)cc1)C(=O)C2` (stereo partly drawn) [Example 84, 4-(1-{4-[(S)-1-(4-Chloro-phenyl)-7-isopropoxy-6-methoxy-3-oxo-3,4-dihydro-1H-isoquinolin-2-yl]-phenyl}-1-hydroxy-ethyl)-piperidine-1-carboxylic acid isopropylamide], the concentration for half-maximal inhibition (IC50) in assay [1] turned out to be 5.91 µM; in assay [2], 0.0056 µM.

As for `COc1cc2c(cc1OC(C)C)[C@H](c1ccc(Cl)cc1)N(c1ccc(C(C)(O)C3CC4CCC(C3)N4C(C)=O)cc1)C(=O)C2` (stereo partly drawn) [Example 104, (S)-2-{4-[1-(8-Acetyl-8-aza-bicyclo[3.2.1]oct-3-yl)-1-hydroxy-ethyl]-phenyl}-1-(4-chloro-phenyl)-7-isopropoxy-6-methoxy-1,4-dihydro-2H-isoquinolin-3-one], the IC50 worked out at 14.2 µM in assay [1] and 0.0132 µM in assay [2].

In the case of `COc1cc2c(cc1OC(C)C)[C@H](c1ccc(Cl)cc1)N(c1ccc(C(C)(O)C34CCC(CC3)O4)cc1)C(=O)C2` (mixture of isomers) [Example 135, (S)-1-(4-Chloro-phenyl)-2-{4-[1-hydroxy-1-(7-oxa-bicyclo[2.2.1]hept-1-yl)-ethyl]-phenyl}-7-isopropoxy-6-methoxy-1,4-dihydro-2H-isoquinolin-3-one], the values for the IC50 in assay [1] and in assay [2] were 7.61 µM and 0.00815 µM, respectively.

Regarding `COc1cc2c(cc1OC(C)C)[C@H](c1ccc(Cl)cc1)N(c1ccc(C(C)(O)c3ccc(NC(C)=O)cc3)nc1)C(=O)C2` (stereo partly drawn) [Example 24, N-[4-(1-{5-[(S)-1-(4-Chloro-phenyl)-7-isopropoxy-6-methoxy-3-oxo-3,4-dihydro-1H-isoquinolin-2-yl]-pyridin-2-yl}-1-hydroxy-ethyl)-phenyl]-acetamide], the results for the half-maximal inhibitory concentration (IC50) in assay [1] and in assay [2] were 61.3 µM and 0.0544 µM, respectively.

As to `COc1cc2c(cc1OC(C)C)[C@H](c1ccc(Cl)cc1)N(c1ccc(C(C)(O)c3ccccn3)cc1)C(=O)C2` (stereo partly drawn) [Example 18, (S)-1-(4-Chloro-phenyl)-2-[4-(1-hydroxy-1-pyridin-2-yl-ethyl)-phenyl]-7-isopropoxy-6-methoxy-1,4-dihydro-2H-isoquinolin-3-one], the IC50 in assay [1] was determined as 37.2 µM; in assay [2], 0.0368 µM.

Take `COc1cc2c(cc1OC(C)C)[C@H](c1ccc(Cl)cc1)N(c1ccc([C@@](C)(O)C3CCOCC3)c(F)c1)C(=O)C2` (single isomer, unassigned) [Example 39]: the half-inhibitory concentration (IC50) in assay [1] worked out at 1.52 µM; in assay [2] it was 0.0023 µM.

Consider `COc1cc2c(cc1OC(C)C)[C@H](c1ccc(Cl)cc1)N(c1ccc(C(C)(O)C3CN(C(C)=O)C3)cc1)C(=O)C2` (stereo partly drawn) [Example 66, (S)-2-{4-[1-(1-Acetyl-azetidin-3-yl)-1-hydroxy-ethyl]-phenyl}-1-(4-chloro-phenyl)-7-isopropoxy-6-methoxy-1,4-dihydro-2H-isoquinolin-3-one], for which the half-maximal inhibitory concentration (IC50) in assay [1] stood at 13.5 µM; in assay [2] it was 0.0146 µM.

With `COc1cc2c(cc1OC(C)C)[C@H](c1ccc(Cl)cc1)N(c1ccc(C(C)(O)c3ccc(NC(C)=O)cc3)cc1)C(=O)C2` (mixture of isomers) [Example 21, N-[4-(1-{4-[(S)-1-(4-Chloro-phenyl)-7-isopropoxy-6-methoxy-3-oxo-3,4-dihydro-1H-isoquinolin-2-yl]-phenyl}-1-hydroxy-ethyl)-phenyl]-acetamide], the concentration for half-maximal inhibition (IC50) stood at 10.4 µM in assay [1] and 0.0071 µM in assay [2].

As for `COc1cc2c(cc1OC(C)C)[C@H](c1ccc(Cl)cc1)N(c1ccc(C(C)(O)C3CCN(C(=O)N(C)C)CC3)cc1)C(=O)C2` (stereo partly drawn) [Example 82, 4-(1-{4-[(S)-1-(4-Chloro-phenyl)-7-isopropoxy-6-methoxy-3-oxo-3,4-dihydro-1H-isoquinolin-2-yl]-phenyl}-1-hydroxy-ethyl)-piperidine-1-carboxylic acid dimethylamide], the IC50 in assay [1] worked out at 2.9 µM; in assay [2] it was 0.0032 µM.

As to `COc1cc2c(cc1OC(C)C)[C@H](c1ccc(Cl)cc1)N(c1ccc(C(C)(O)C3CCS(=O)(=O)CC3)cc1)C(=O)C2` (stereo partly drawn) [Example 166, (S)-1-(4-Chloro-phenyl)-2-{4-[1-(1,1-dioxo-hexahydro-1-thiopyran-4-yl)-1-hydroxy-ethyl]-phenyl}-7-isopropoxy-6-methoxy-1,4-dihydro-2H-isoquinolin-3-one], the IC50 in assay [1] is 7.78 µM; in assay [2] it was 0.00735 µM.

For the compound `CCN1CCC(C(C)(O)c2ccc(N3C(=O)Cc4cc(OC)c(OC(C)C)cc4[C@@H]3c3ccc(Cl)cc3)cc2)CC1` (stereo partly drawn) [Example 85, (S)-1-(4-Chloro-phenyl)-2-{4-[1-(1-ethyl-piperidin-4-yl)-1-hydroxy-ethyl]-phenyl}-7-isopropoxy-6-methoxy-1,4-dihydro-2H-isoquinolin-3-one], the 50% inhibitory concentration (IC50) in assay [1] came out at 4.94 µM; in assay [2] it was 0.0048 µM.

Take `COc1cc2c(cc1OC(C)C)[C@H](c1ccc(Cl)cc1)N(c1ccc(C(C)(O)C3CN(C(=O)CO)C3)cc1)C(=O)C2` (stereo partly drawn) [Example 102, (S)-1-(4-Chloro-phenyl)-2-(4-{1-hydroxy-1-[1-(2-hydroxy-acetyl)-azetidin-3-yl]-ethyl}-phenyl)-7-isopropoxy-6-methoxy-1,4-dihydro-2H-isoquinolin-3-one]: the IC50 stood at 7.38 µM in assay [1] and 0.0078 µM in assay [2].

As to `COc1cc2c(cc1OC(C)C)[C@H](c1ccc(Cl)cc1)N(c1ccc([C@](C)(O)C34CCC(CC3)O4)cc1)C(=O)C2` (single isomer, unassigned) [Example 137], the results for the half-inhibitory concentration (IC50) in assay [1] and in assay [2] were 25.7 µM and 0.145 µM, respectively.

With `CNC(=O)N1CCC(C(C)(O)c2ccc(N3C(=O)Cc4cc(OC)c(OC(C)C)cc4[C@@H]3c3ccc(Cl)cc3)cc2)CC1` (stereo partly drawn) [Example 79, 4-(1-{4-[(S)-1-(4-Chloro-phenyl)-7-isopropoxy-6-methoxy-3-oxo-3,4-dihydro-1H-isoquinolin-2-yl]-phenyl}-1-hydroxy-ethyl)-piperidine-1-carboxylic acid methylamide], the IC50 stood at 5.63 µM in assay [1] and 0.0052 µM in assay [2].

With `COc1cc2c(cc1OC(C)C)[C@H](c1ccc(Cl)cc1)N(c1ccc(C(C)(O)C3CNC3)cc1)C(=O)C2` (stereo partly drawn) [Example 65, (S)-2-[4-(1-Azetidin-3-yl-1-hydroxy-ethyl)-phenyl]-1-(4-chloro-phenyl)-7-isopropoxy-6-methoxy-1,4-dihydro-2H-isoquinolin-3-one], the IC50 turned out to be 41.2 µM in assay [1] and 0.0423 µM in assay [2].

Turning to `COc1cc2c(cc1OC(C)C)[C@H](c1ccc(Cl)cc1)N(c1ccc(C(C)(O)c3ccc(NC(C)=O)cc3)cn1)C(=O)C2` (stereo partly drawn) [Example 25, N-[4-(1-{6-[(S)-1-(4-Chloro-phenyl)-7-isopropoxy-6-methoxy-3-oxo-3,4-dihydro-1H-isoquinolin-2-yl]-pyridin-3-yl}-1-hydroxy-ethyl)-phenyl]-acetamide], the half-maximal inhibitory concentration (IC50) is 19.5 µM in assay [1] and 0.0112 µM in assay [2].

As for `COc1cc2c(cc1OC(C)C)[C@H](c1ccc(Cl)cc1)N(c1ccc(C(C)(O)C3CCNCC3)cc1)C(=O)C2` (stereo partly drawn) [Example 43, (S)-1-(4-Chloro-phenyl)-2-[4-(1-hydroxy-1-piperidin-4-yl-ethyl)-phenyl]-7-isopropoxy-6-methoxy-1,4-dihydro-2H-isoquinolin-3-one], the IC50 is 4.99 µM in assay [1] and 0.0041 µM in assay [2].

On to `COc1cc2c(cc1OC(C)C)[C@H](c1ccc(Cl)cc1)N(c1ccc(C(C)(O)c3ccc(NC(C)=O)cc3)c(F)c1)C(=O)C2` (stereo partly drawn) [Example 28, N-[4-(1-{4-[(S)-1-(4-Chloro-phenyl)-7-isopropoxy-6-methoxy-3-oxo-3,4-dihydro-1H-isoquinolin-2-yl]-2-fluoro-phenyl}-1-hydroxy-ethyl)-phenyl]-acetamide], for which the IC50 in assay [1] is 9.7 µM; in assay [2], 0.0066 µM.
